From the supplement of paper PMC12137928
Structures can show the parent of a compound that is named as a salt.

Tested on: HCT116
Details: 72 h
In short: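 After seeding at 250 cells per well in 1536-well plates, HCT116 cells were given 5 h to attach. CellTiter-Glo luminescence, scaled to 0% for vehicle and -100% for positive control, was pattern-corrected. Fitting with a four-parameter Hill model produced IC50 and maximal efficacy.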

Structure (SMILES) | IC50 cell viability (ICRF193 0 nM) | IC50 cell viability (ICRF193 200 nM)
CCOc1ccc(/N=C(\C)Nc2ccc(OCC)cc2)cc1 [Phenacaine hydrochloride] | > 45.8 µM | > 45.8 µM
CCCCCCCCCC(=O)N[C@@H](Cc1c[nH]c2ccccc12)C(=O)N[C@H](CC(N)=O)C(=O)N[C@@H](CC(=O)O)C(=O)N[C@@H]1C(=O)NCC(=O)N[C@@H](CCCN)C(=O)N[C@@H](CC(=O)O)C(=O)N[C@H](C)C(=O)N[C@@H](CC(=O)O)C(=O)NCC(=O)N[C@H](CO)C(=O)N[C@@H]([C@H](C)CC(=O)O)C(=O)N[C@@H](CC(=O)c2ccccc2N)C(=O)O[C@@H]1C [Daptomycin] | > 45.8 µM | > 45.8 µM
O=c1n(Cl)c(=O)n(Cl)c(=O)n1Cl [Symclosene] | > 45.8 µM | > 45.8 µM
COc1ccc(-c2cc(=S)ss2)cc1 [Anethole trithione] | > 45.8 µM | > 45.8 µM
Oc1cc(O)cc(O)c1 [1,3,5-Trihydroxybenzene dihydrate] | > 45.8 µM | > 45.8 µM
OCCN1CCN(CCC=C2c3ccccc3Sc3ccc(Cl)cc32)CC1 [Zuclopenthixol (-)-10-Camphorsulfonic Acid Salt] | > 45.8 µM | > 45.8 µM
COc1ccc([C@@H]2Sc3ccccc3N(CCN(C)C)C(=O)[C@@H]2OC(C)=O)cc1 [Diltiazem] | > 45.8 µM | > 45.8 µM
O=C1c2ccccc2C(=O)c2ccccc21 [Anthraquinone] | > 45.8 µM | > 45.8 µM
CC(C)(C)NCC(O)COc1ccccc1OCC1CCCO1 (stereo unspecified) [Bufetolol] | > 45.8 µM | > 45.8 µM
COc1cc2c(cc1OC)C13CC[N+]4([O-])CC5=CCOC6CC(=O)N2C1C6C5CC34 (stereo unspecified) [Brucine-N-oxide] | > 45.8 µM | > 45.8 µM
CCOP(=S)(OCC)Oc1ccc2c(C)c(Cl)c(=O)oc2c1 [Coumaphos] | > 45.8 µM | > 45.8 µM
Nc1ccn([C@@H]2CO[C@H](CO)O2)c(=O)n1 [Troxacitabine] | > 45.8 µM | > 45.8 µM
C[N+]1(C)[C@@H]2CC[C@H]1C[C@@H](OC(=O)C(CO)c1ccccc1)C2 (stereo partly specified) [Methylatropine nitrate] | > 45.8 µM | > 45.8 µM
CC(C)(C)NCC(O)COc1cccc2c1CC(O)C(O)C2 (stereo unspecified) [Nadolol] | > 45.8 µM | > 45.8 µM
Cc1ccsc1/C=C/C1=NCCCN1C [Morantel tartrate] | > 45.8 µM | > 45.8 µM
C#CC1(O)CC[C@H]2[C@@H]3CCC4=CC(=O)CC[C@@H]4[C@H]3CC[C@@]21CC (stereo partly specified) [Norgestrel] | > 45.8 µM | > 45.8 µM
CCc1c(C)[nH]c2c1C(=O)C(CN1CCOCC1)CC2 (stereo unspecified) [Molindone hydrochloride] | > 45.8 µM | > 45.8 µM
Cc1cccc(C)c1NC1=NCCCS1 [Xylazine] | > 45.8 µM | > 45.8 µM
O=C(N[C@H]1N=C(c2ccccc2F)c2cccc3c2N(CC3)C1=O)c1cc2ccccc2[nH]1 [Pranazepide] | > 45.8 µM | > 45.8 µM
Cc1c(I)c(=O)n(-c2ccccc2)n1C [Iodoantipyrine] | > 45.8 µM | > 45.8 µM
CCn1cc(C(=O)O)c(=O)c2cc(F)c(N3CCNCC3)cc21 [Norfloxacin] | > 45.8 µM | > 45.8 µM

Structure (SMILES) | IC50 cell viability (ICRF193 0 nM) | IC50 cell viability (ICRF193 200 nM)
O=C1c2c(O)cccc2Cc2cccc(O)c21 [Anthralin] | > 45.8 µM | > 45.8 µM
Cc1ncc([N+](=O)[O-])n1CC(C)O (stereo unspecified) [Secnidazole] | > 45.8 µM | > 45.8 µM
O=C1CCC(N2C(=O)c3ccccc3C2=O)C(=O)N1 (stereo unspecified) [Thalidomide] | > 45.8 µM | > 45.8 µM
O=C(CCCN1CCC(n2c(=O)[nH]c3ccccc32)CC1)c1ccc(F)cc1 [Benperidol] | > 45.8 µM | > 45.8 µM
C[C@@H](CO)NC(=O)[C@@H]1C=C2c3cccc4[nH]cc(c34)C[C@H]2N(C)C1 [Ergobasine] | > 45.8 µM | > 45.8 µM
NS(=O)(=O)Cc1noc2ccccc12 [Zonisamide] | > 45.8 µM | > 45.8 µM
Nc1ccncc1 [4-Aminopyridine] | > 45.8 µM | > 45.8 µM
Oc1cc(O)c(Cl)cn1 [Gimeracil] | > 45.8 µM | > 45.8 µM
N#Cc1ccc(C(c2ccc(C#N)cc2)n2cncn2)cc1 [Letrozole] | > 45.8 µM | > 45.8 µM
CC(N)C12CC3CC(CC(C3)C1)C2 (stereo unspecified) [Rimantadine] | > 45.8 µM | > 45.8 µM
CN(Cc1ccc(C(C)(C)C)cc1)Cc1cccc2ccccc12 [Butenafine] | > 45.8 µM | > 45.8 µM
CC(N)C(O)c1ccccc1 (stereo unspecified) [Phenylpropanolamine hydrochloride] | > 45.8 µM | > 45.8 µM
Cc1c(C(=O)O)c(O)cc2c1C(=O)c1c(O)c(C3OC(CO)C(O)C(O)C3O)c(O)c(O)c1C2=O (stereo unspecified) [Cochineal] | > 45.8 µM | > 45.8 µM
CCN(CC)C(C)CN1c2ccccc2Sc2ccccc21 (stereo unspecified) [Ethopropazine hydrochloride] | > 45.8 µM | > 45.8 µM
CC1(C)[C@@H]2CC[C@@]1(C)[C@H](OC(=O)CSC#N)C2 [Thanite] | > 45.8 µM | > 45.8 µM
O=C(NCC1CCCCN1)c1cc(OCC(F)(F)F)ccc1OCC(F)(F)F (stereo unspecified) [Flecainide] | > 45.8 µM | > 45.8 µM
CC(=O)O[C@]1(C(C)=O)CC[C@H]2[C@@H]3C[C@H](C)C4=CC(=O)CC[C@]4(C)[C@H]3CC[C@@]21C [Medroxyprogesterone acetate] | > 45.8 µM | > 45.8 µM
Nc1cccc2c1C(=O)N(C1CCC(=O)NC1=O)C2=O (stereo unspecified) [Pomalidomide] | > 45.8 µM | > 45.8 µM
CN1CCN(c2c(F)cc3c(=O)c(C(=O)O)cn4c3c2OCN4C)CC1 [Marbofloxacin] | > 45.8 µM | > 45.8 µM
CN1CCN(C2=Nc3cc(Cl)ccc3Nc3ccccc32)CC1 [Clozapine] | > 45.8 µM | > 45.8 µM

Other lines, results leading:

IC50 cell viability (ICRF193 0 nM) | IC50 cell viability (ICRF193 200 nM) | Structure (SMILES)
> 45.8 µM | > 45.8 µM | CCCC(O)C(CC)CO (stereo unspecified) [2-Ethyl-1,3-hexanediol]
> 45.8 µM | > 45.8 µM | N[C@@H](Cc1cc(I)c(Oc2cc(I)c(O)c(I)c2)c(I)c1)C(=O)O [L-Thyroxine]
> 45.8 µM | > 45.8 µM | CCOc1ccccc1C(N)=O [2-Ethoxybenzamide]
> 45.8 µM | > 45.8 µM | C[C@@H](O)[C@H](N)C(=O)O [L-Threonine]
> 45.8 µM | > 45.8 µM | Cn1nnc2c(C(N)=O)ncn2c1=O [Temozolomide]
> 45.8 µM | > 45.8 µM | CC(C(=O)O)c1ccc2c(c1)CC(=O)c1ccccc1S2 (stereo unspecified) [Zaltoprofen]
> 45.8 µM | > 45.8 µM | NCCCC[C@H](NC(=O)[C@@H]1CCCN1C(=O)[C@@H]1CSSC[C@H](N)C(=O)N[C@@H](Cc2ccccc2)C(=O)N[C@@H](Cc2ccccc2)C(=O)N[C@@H](CCC(N)=O)C(=O)N[C@@H](CC(N)=O)C(=O)N1)C(=O)NCC(N)=O [Felypressin]
> 45.8 µM | > 45.8 µM | NS(=O)(=O)c1cc(C(=O)NN2C[C@@H]3[C@H]4CC[C@H](C4)[C@@H]3C2)ccc1Cl [Tripamide]
> 45.8 µM | > 45.8 µM | Nc1nc(=O)c2nc(CNc3ccc(C(=O)N[C@@H](CCC(=O)O)C(=O)O)cc3)cnc2[nH]1 [Folic acid]
> 45.8 µM | > 45.8 µM | CO/N=C(\C(=O)N[C@@H]1C(=O)N2C(C(=O)O)=C(C[N+]3(C)CCCC3)CS[C@H]12)c1csc(N)n1 [CEFEPIME HYDROCHLORIDE]
> 45.8 µM | > 45.8 µM | CC(=O)N(CC(C)C(=O)O)c1c(I)cc(I)c(N)c1I (stereo unspecified) [Iocetamic acid]
> 45.8 µM | > 45.8 µM | C[C@H](CSC(=O)c1ccccc1)C(=O)N1C[C@@H](Sc2ccccc2)C[C@H]1C(=O)O [Zofenopril]
> 45.8 µM | > 45.8 µM | CCCOC(=O)c1ccc(O)cc1 [Propyl-4-hydroxybenzoate]
> 45.8 µM | > 45.8 µM | CC[C@H](C)[C@@H]1NC(=O)[C@H](Cc2ccc(O)cc2)NC(=O)[C@@H](N)CSSC[C@@H](C(=O)N2CCC[C@H]2C(=O)N[C@@H](CC(C)C)C(=O)NCC(N)=O)NC(=O)[C@H](CC(N)=O)NC(=O)[C@H](CCC(N)=O)NC1=O [Oxytocin]
> 45.8 µM | > 45.8 µM | CC(=O)N[C@@H](CCC(N)=O)C(=O)O [Nalpha-Acetyl-L-glutamine]
> 45.8 µM | > 45.8 µM | NC(=O)c1ncn([C@@H]2O[C@H](CO)[C@@H](O)[C@H]2O)n1 [Ribavirin]
> 45.8 µM | > 45.8 µM | O=C(NNCS(=O)(=O)O)c1ccncc1 [Isoniazid sodium methanesulfonate]
> 45.8 µM | > 45.8 µM | C[C@@H](O)[C@H]1C(=O)N2C(C(=O)O)=C(SCCNC=N)C[C@H]12 [Imipenem]
> 45.8 µM | > 45.8 µM | O=P(O)(O)CP(=O)(O)O [Medronic acid]
> 45.8 µM | > 45.8 µM | CO/N=C(/C(=O)N[C@@H]1C(=O)N2C(C(=O)OCOC(=O)C(C)(C)C)=C(C)CS[C@H]12)c1csc(N)n1 [Cefetamet pivoxil HCl]
> 45.8 µM | > 45.8 µM | C[C@H]1[C@H](NC(=O)/C(=N\OC(C)(C)C(=O)O)c2csc(N)n2)C(=O)N1S(=O)(=O)O [Aztreonam]
> 45.8 µM | > 45.8 µM | CC(=O)OCC(=O)[C@@]1(O)[C@H](OC(C)=O)C[C@H]2[C@@H]3CCC4=CC(=O)C=C[C@]4(C)[C@@]3(F)[C@@H](O)C[C@@]21C [Triamcinolone diacetate]
